One data set deals with HIV-1 ROJO. Briefly: Antiviral activity in PBMCs infected with HIV-1 ROJO (reverse transcriptase). The data set is classed as cell-based. Here is the method:
(§1) The activity of the certain compounds of the invention was evaluated in peripheral blood mononuclear cells (PBMCs) infected with the low passage, clinical isolate HIV-1 ROJO to generate a measure of the efficacy of these compounds in acutely infected cells. The use of these normal human cells allows an estimate of the therapeutic index of these compounds to be made. Fresh PBMCs from two donors were pooled and stimulated with PHA-P for 48-72 hours. The cells were then cultured in the presence of IL-2 to maintain the cell division initiated by the mitogenic signal. The virus was added at a multiplicity of infection of 0.1. The cells were cultured for 7 days post infection prior to the evaluation of efficacy. Viral replication was measured by the level of reverse transcriptase activity in the supernatant and cytotoxicity was measured with the MTS assay.

Data set [1] deals with peripheral blood mononuclear cells (PBMCs). The data set can be described thus: Cytotoxicity in PBMCs (MTS assay). The data set is classed as cell-based, human. As to conditions: read-out: TC50: 50% cytoxicity (MTS). Here is the method: as §1
(In general: Tetrazolium dyes change colour on reduction, which living cells bring about.)

A further data set has as its system HCT-116 cells. Briefly: BrdU incorporation assay. The data set is classed as cell-based. The following applies: Homo sapiens, read-out: Brd U, concentration that inhibits BrdU incorporation by 50%. How it is done:
This method measured the percentage of cells that incorporated the nucleotide analog, BrdU, into newly synthesized DNA as cells progressed through the S phase of the cell cycle. The inhibition of BrdU incorporation was used as a measure of a Cdk inhibitor's effect on S phase progression and DNA replication.
3 sets of HCT-116 cells (100,000 cells/set) were plated in T25 flasks and incubated with a test compound as above. Analysis was done at 24, 48, and 72 hours. BrdU was added to each T-25 flask from a stock of 10 mg/ml to a final concentration of 10 μM and the cells were incubated for an additional 16-18 hours at 37° C. The cells were then prepared for flow cytometric analysis according to manufacturer's protocol (BrdU Flow kit, BD-Pharmingen catalogue #2354KK) as follows:
Cells were harvested (adherent and floating) from the T25 flasks directly into Falcon 12×75 flow cytometric tubes as above followed by fixation and permeabilization with the addition of 100 μl of Cytofix/Cytoperm buffer (30 minutes, room temperature). The cells were then washed with 1 ml of Perm Wash buffer and the cell pellets were resuspended in 100 μl Cytoperm Plus buffer and incubated on ice for 10 minutes. The cells were then washed again with 1 ml of Perm Wash buffer and the fixation was repeated in 100 μl of Cytofix/Cyto Perm buffer for 10 minutes at room temperature. The cells were then washed with 1 ml of Perm Wash buffer. The cells were next treated for one hour at 37° C. with 100 μl DNase to expose incorporated BrdU followed by another wash step with 1 ml of Perm Wash buffer. […] Cells were protected from light and incubated at room temperature for 20-30 minutes. Following the incubation, the cells were washed with 1 ml of Perm Wash buffer, resuspended in 300 μl of 2% FBS in PBS, and analyzed on the flow cytometer. Results are presented in Table 2 as the concentration of compound (μM) that inhibits of BrdU incorporation by 50%.

The subject of the next data set is arrested HCT-116 cells. The data set can be described thus: Arrested cell assay, arrested HCT-116 tumor cells. Type of data set: cell-based. The following applies: Homo sapiens, serum-starved arrested cells, 72 hours, read-out: Arrested cell assay HCT IC50. How it is done: (§2) Cyclin-dependent kinase (Cdk) activity is required to promote the progression of cells through distinct phases of the cell division cycle. The proliferation of normal, non-transformed, cells in culture requires the presence of growth factors, the removal of which, through serum deprivation, leads to a loss of Cdk activity and consequent exit from the cell cycle as cells enter the quiescent phase, G0.
HCT-116 cells were plated in triplicate for each compound concentration to be tested in RPMI 1640 media containing 10% fetal calf serum at a density of either 200 or 2,000 cells per well in 24 well dishes, and incubated overnight at 37° C., 5% CO2. The media from the plate containing 2,000 cells per well was removed, cells were washed once with serum free media and 1 ml of serum free media was placed on cells. The plates containing cells both in the presence and absence of serum were incubated for 6 additional days.
(§3) The cells are incubated in the presence of the compounds for 72 hours (3 days) at 37° C. […] Cycling and arrested HCT-116 cells as well as cycling IMR90 cells were exposed to a panel of 6 doses ranging from 5 to 250 nM. For arrested normal cells, the range of doses was increased to 50 nM to 25 μM, to compensate for the expected decrease in activity.
(§4) The effect of 72 hours of compound exposure on cellular viability was assessed in the Calcein AM assay. Calcein AM is a fluorescent substrate of intracellular esterases that are only active in viable cells. Cleavage of the substrate thus provides a measure of viability, which is proportional to cell number.
(§5) A Calcein AM stock solution was prepared by dissolving a 50 μg aliquot (Molecular Probes catalogue # C3100) in 50 μl DMSO. The tube was incubated at room temperature for approximately 10 minutes to ensure that the Calcein had dissolved completely. The calcein was diluted into 10 ml PBS to prepare the final solution, which was protected from light.
(§6) The media was aspirated off the cells, which were then washed twice with 1 ml PBS to remove the PBS completely from cells by aspiration. 0.5 ml of the Calcein/PBS solution was transferred by pipette into each well. The plates were incubated at 37° C. for 75 minutes (protected from light) and read on a fluorescent plate reader (excitation 485/20 and emission 530/25).

In another data set the test system is arrested IMR90 cells. The data set can be described thus: Arrested cell assay, arrested IMR90 normal cells. As to conditions: Homo sapiens, IMR-90; serum-starved arrested cells, 72 hours; read-out: Arrested cell assay IMR90 IC50. Type of data set: cell-based. Here is the method:
as §2
IMR90 cells were plated in triplicate for each compound concentration to be tested in MEM-A media containing 10% fetal calf serum at a density of either 2,000 or 20,000 cells per well in 24-well dishes and incubated overnight at 37° C., 5% CO2. The media was removed from the 20,000 cell-per-well dish, cells were washed once with serum-free media, and serum-free media was placed on cells. The plates containing cells both in the presence and absence of serum were incubated for 3 additional days.
as §3, §4, §5, §6

Data set [2] has as its target protein kinase C (mixed isozymes). The data set can be described thus: Protein kinase C TCA precipitation assay. Type of data set: biochemical, rat. As to conditions: Table 5; read-out: PKC IC50. Here is the method:
Enzymes: Cdc2/cyclin B was obtained from commercial sources. Cdk2/his-cyclin Eshort was expressed in Sf9 cells. Cdk2/cyclin A, cdk4/cyclin D1, and cdk6/cyclin D2 were expressed in Sf9 cells. Protein kinase A (catalytic subunit, from bovine heart) and protein kinase C (mixed isozymes from rat brain) were obtained from commercial sources.
Protein kinase C and protein kinase A were assayed using a TCA precipitation assay with Histone H1 as a substrate. For protein kinase A, the final assay contained 50 mM Tris, 10 mM MgCl2, 1 mM dithiothreitol, pH 7.5, 12 μM adenosine triphosphate, 10% (v/v) dimethylsulfoxide (from compounds), 20 μg Histone H1, 2 μCi [γ-^32P] adenosine triphosphate, 0.2 U protein kinase A in a 100 μL assay. A protein kinase C assay contained 50 mM Tris, 10 mM MgCl2, 1 mM dithiothreitol, 0.8 mM CaCl2, pH 7.5, 5 μM adenosine triphosphate, 10% (v/v) dimethylsulfoxide (from compounds), 20 μg Histone H1, 2 μCi [γ-^32P] adenosine triphosphate, 0.01 U protein kinase C in a 50 μL assay. The assays were started by the addition of enzyme, allowed to react for 10 min at 30° C., and stopped by adding 0.4 volumes of 237 mM disodium ethylenediamine tetraacetate, 105 mM adenosine triphosphate, pH 8.0. […] The filters were washed ten times with 25% (w/v) trichloroacetic acid, and the amount of incorporated [^32P]phosphate was determined by adding 100 μl Microscint and scintillation counting.

Structures are written as SMILES. Read-outs that look alike come from different tables or passages of the source.

On to `Cc1cn([C@H]2C[C@H](N=[N+]=[N-])[C@@H](CO)O2)c(=O)[nH]c1=O` [AZT, reference compound], for which the “TI: TC50/IC50” value in the data set with HIV-1 ROJO is listed as more than 100. The IC50 in the data set with HIV-1 ROJO (read-out: IC50: 50% inhibition of virus replication measured by reverse transcriptase levels in the supernatant, HIV-1 ROJO, 7 days post infection) was less than 10 nM. The CC50 in data set [1] was more than 1000 nM.
In the case of `CC(C)N1CCN(CCOc2ccc(-c3[nH]nc4c3C(=O)c3c(NC(=O)NN5CCOCC5)cccc3-4)cc2)CC1` [E], the IC50 is less than 10 nM in the data set on HCT-116 cells (HCT-116, 24 h); less than 100 nM in the data set with HCT-116 cells (HCT-116, 48 h); less than 100 nM in the data set with arrested HCT-116 cells; more than 100 nM in the data set on arrested IMR90 cells; less than 10000 nM in data set [2].

For the origin of these results see patent US7605175B2, “Inhibitors of cyclin-dependent kinases, compositions and uses related thereto” (GPC Biotech AG, priority 2001, dated 2009).
